Assay results taken from patent publication US20220187282A1, “CARDIOMYOCYTE PROLIFERATION” (The Council of the Queensland Institute of Medical Research, priority 2019, published 2022).
Like-named read-outs stand apart in the source and are kept apart here.

How the values were obtained:
Format in all cases: biochemical
kinases [1] = biological target: kinases (Homo sapiens, UniProt Q9NR20); settings: DYRK4 FRET-Z-Lyte SP; Test Conc(μM):ATP Conc(μM) 1:5
kinases [2] = biological target: kinases (Homo sapiens, UniProt Q12851); settings: MAP4K2 (GCK) FRET-Z-Lyte SP; Test Conc(μM):ATP Conc(μM) 1:100
kinases [3] = biological target: kinases (Homo sapiens, UniProt P11362); settings: FGFR1 *Mn* FRET-Z-Lyte SP; Test Conc(μM):ATP Conc(μM) 1:25
kinases [4] = biological target: kinases (Homo sapiens, UniProt Q15139); settings: PRKD1 (PKC mu) Z-Lyte SP; Test Conc(μM):ATP Conc(μM) 1:10
kinases [5] = biological target: kinases (Homo sapiens, UniProt Q14164); settings: IKBKE (IKK epsilon) Z-Lyte SP; Test Conc(μM):ATP Conc(μM) 1:10
kinases [6] = biological target: kinases (Homo sapiens, UniProt Q9UBS0); settings: RPS6KB2 FRET-Z-Lyte SP; Test Conc(μM):ATP Conc(μM) 1:50
kinases [7] = biological target: kinases (Homo sapiens, UniProt P06493)
kinases [8] = biological target: kinases (Homo sapiens, UniProt Q05655); settings: PRKCD (PKC delta) Z-Lyte SP; Test Conc(μM):ATP Conc(μM) 1:25
kinases [9] = biological target: kinases (Homo sapiens, UniProt P48729); settings: CSNK1A1 FRET-Z-Lyte SP; Test Conc(μM):ATP Conc(μM) 1:5
kinases [10] = biological target: kinases (Homo sapiens, UniProt P32298); settings: GRK4 FRET-Z-Lyte SP; Test Conc(μM):ATP Conc(μM) 1:10
kinases [11] = biological target: kinases (Homo sapiens, UniProt P49759); settings: CLK1 FRET-Z-Lyte SP; Test Conc(μM):ATP Conc(μM) 1:25
kinases [12] = biological target: kinases (Homo sapiens, UniProt Q9P0L2); settings: MARK1 (MARK) FRET-Z-Lyte SP; Test Conc(μM):ATP Conc(μM) 1:5
kinases [13] = biological target: kinases (Homo sapiens, UniProt Q16566); settings: CAMK4 (CaMKIV) FRET-Z-Lyte SP; Test Conc(μM):ATP Conc(μM) 1:25
kinases [14] = biological target: kinases (Homo sapiens, UniProt P08069); settings: IGF1R FRET-Z-Lyte SP; Test Conc(μM):ATP Conc(μM) 1:150
kinases [15] = biological target: kinases (Homo sapiens, UniProt Q15208); settings: STK38 FRET-Lantha SP; Test Conc(μM) 1
kinases [16] = biological target: kinases (Homo sapiens, UniProt P42336)
kinases [17] = biological target: kinases (Homo sapiens, UniProt Q9Y6M4); settings: CSNK1G3 (CK1gamma3) Z-Lyte SP; Test Conc(μM):ATP Conc(μM) 1:5
kinases [18] = biological target: kinases (Homo sapiens, UniProt Q9HBY8); settings: SGK2 FRET-Z-Lyte SP; Test Conc(μM):ATP Conc(μM) 1:50
kinases [19] = biological target: kinases (Homo sapiens, UniProt P29376); settings: LTK (TYK1) FRET-Z-Lyte SP; Test Conc(μM):ATP Conc(μM) 1:75
kinases [20] = biological target: kinases (Homo sapiens, UniProt O94921); settings: CDK14(PFTK1)/cyclinY Lantha SP; Test Conc(μM) 1
kinases [21] = biological target: kinases (Homo sapiens, UniProt O60331); settings: Test Conc(μM):ATP Conc(μM) 1:10
kinases [22] = biological target: kinases (Homo sapiens, UniProt Q9UL54); settings: TAOK2 (TAO1) FRET-Z-Lyte SP
kinases [23] = biological target: T1, kinases (Homo sapiens, UniProt P52564)
T1 sequence (P52564 1-334): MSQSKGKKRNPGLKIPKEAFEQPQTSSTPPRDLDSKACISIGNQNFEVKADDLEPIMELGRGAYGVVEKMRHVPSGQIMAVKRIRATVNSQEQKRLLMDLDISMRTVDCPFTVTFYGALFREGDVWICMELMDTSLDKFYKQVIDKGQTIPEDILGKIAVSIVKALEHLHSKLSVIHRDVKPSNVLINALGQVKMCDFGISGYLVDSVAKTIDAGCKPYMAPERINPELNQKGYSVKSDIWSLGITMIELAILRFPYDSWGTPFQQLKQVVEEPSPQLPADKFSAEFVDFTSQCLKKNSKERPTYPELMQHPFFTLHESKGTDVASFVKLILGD

kinases [24] = biological target: kinases (Homo sapiens, UniProt Q9HC98); settings: NEK6 FRET-Z-Lyte SP; Test Conc(μM):ATP Conc(μM) 1:100
kinases [25] = biological target: kinases (Homo sapiens, UniProt Q86Z02); settings: HIPK1 (Myak) FRET-Z-Lyte SP; Test Conc(μM):ATP Conc(μM) 1:5
[26] = CDK1/cyclin A2 FRET-Lantha SP, Test Conc(μM) 1
[27] = CDK1/cyclin B FRET-Z-Lyte SP, Test Conc(μM):ATP Conc(μM) 1:25
[28] = PIK3CA/PIK3R1 FRET-Adapta SP, Test Conc(μM):ATP Conc(μM) 1:25
[29] = PIK3CA/PIK3R3 FRET-Adapta SP, Test Conc(μM):ATP Conc(μM) 1:10
[30] = MAP2K6 (MKK6) FRET-Lantha SP, Test Conc(μM) 1
[31] = MAP2K6 (MKK6)Cascade Z-Lyte SP, Test Conc(μM):ATP Conc(μM) 1:100

Sequence of kinases (Homo sapiens, UniProt P42336) (P42336 whole entry): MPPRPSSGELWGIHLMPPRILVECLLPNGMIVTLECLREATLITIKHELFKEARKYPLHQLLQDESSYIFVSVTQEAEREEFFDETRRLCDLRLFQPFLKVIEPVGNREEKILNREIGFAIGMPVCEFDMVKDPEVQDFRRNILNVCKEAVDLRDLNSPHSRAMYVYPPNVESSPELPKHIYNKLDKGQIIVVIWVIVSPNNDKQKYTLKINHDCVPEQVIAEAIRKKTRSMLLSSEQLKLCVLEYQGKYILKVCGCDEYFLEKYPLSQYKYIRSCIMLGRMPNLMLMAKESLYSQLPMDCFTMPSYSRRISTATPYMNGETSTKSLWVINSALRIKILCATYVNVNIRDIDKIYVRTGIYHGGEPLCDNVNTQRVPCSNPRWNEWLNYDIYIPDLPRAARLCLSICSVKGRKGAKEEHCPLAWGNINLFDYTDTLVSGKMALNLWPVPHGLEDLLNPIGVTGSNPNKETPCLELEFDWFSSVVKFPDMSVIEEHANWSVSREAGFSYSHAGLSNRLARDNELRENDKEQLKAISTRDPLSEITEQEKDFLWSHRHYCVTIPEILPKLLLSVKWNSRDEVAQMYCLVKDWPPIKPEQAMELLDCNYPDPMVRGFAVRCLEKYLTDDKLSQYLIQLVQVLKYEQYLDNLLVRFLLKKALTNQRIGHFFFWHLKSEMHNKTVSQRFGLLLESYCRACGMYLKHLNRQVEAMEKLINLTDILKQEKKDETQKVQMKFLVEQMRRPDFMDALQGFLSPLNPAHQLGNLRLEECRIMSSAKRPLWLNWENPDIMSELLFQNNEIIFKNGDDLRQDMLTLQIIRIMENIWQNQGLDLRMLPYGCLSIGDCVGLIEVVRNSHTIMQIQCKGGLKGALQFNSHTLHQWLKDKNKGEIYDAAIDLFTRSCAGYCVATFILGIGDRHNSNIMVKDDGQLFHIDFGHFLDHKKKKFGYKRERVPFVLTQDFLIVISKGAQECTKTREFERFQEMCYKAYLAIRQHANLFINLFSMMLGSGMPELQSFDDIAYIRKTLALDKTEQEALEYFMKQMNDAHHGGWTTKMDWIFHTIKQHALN
Sequence of kinases (Homo sapiens, UniProt P06493) (P06493 whole entry): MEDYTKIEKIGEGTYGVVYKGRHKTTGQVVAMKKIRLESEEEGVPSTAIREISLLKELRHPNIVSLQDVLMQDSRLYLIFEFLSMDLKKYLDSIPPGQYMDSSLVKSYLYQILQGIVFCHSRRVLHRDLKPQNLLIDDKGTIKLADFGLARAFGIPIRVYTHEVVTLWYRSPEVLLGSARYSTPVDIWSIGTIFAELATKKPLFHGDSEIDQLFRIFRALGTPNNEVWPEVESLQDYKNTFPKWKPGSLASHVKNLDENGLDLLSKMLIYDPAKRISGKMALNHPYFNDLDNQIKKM
Sequence of kinases (Homo sapiens, UniProt Q9HC98) (Q9HC98 whole entry): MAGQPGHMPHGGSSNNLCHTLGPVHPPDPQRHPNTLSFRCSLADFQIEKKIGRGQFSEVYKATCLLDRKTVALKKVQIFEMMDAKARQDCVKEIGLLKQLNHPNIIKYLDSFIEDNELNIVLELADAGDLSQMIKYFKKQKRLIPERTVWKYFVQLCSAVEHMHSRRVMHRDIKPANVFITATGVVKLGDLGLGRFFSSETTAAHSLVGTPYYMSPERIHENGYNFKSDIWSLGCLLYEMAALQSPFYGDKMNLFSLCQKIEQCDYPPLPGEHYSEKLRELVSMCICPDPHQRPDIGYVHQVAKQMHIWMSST
Sequence of kinases (Homo sapiens, UniProt Q14164) (Q14164 whole entry): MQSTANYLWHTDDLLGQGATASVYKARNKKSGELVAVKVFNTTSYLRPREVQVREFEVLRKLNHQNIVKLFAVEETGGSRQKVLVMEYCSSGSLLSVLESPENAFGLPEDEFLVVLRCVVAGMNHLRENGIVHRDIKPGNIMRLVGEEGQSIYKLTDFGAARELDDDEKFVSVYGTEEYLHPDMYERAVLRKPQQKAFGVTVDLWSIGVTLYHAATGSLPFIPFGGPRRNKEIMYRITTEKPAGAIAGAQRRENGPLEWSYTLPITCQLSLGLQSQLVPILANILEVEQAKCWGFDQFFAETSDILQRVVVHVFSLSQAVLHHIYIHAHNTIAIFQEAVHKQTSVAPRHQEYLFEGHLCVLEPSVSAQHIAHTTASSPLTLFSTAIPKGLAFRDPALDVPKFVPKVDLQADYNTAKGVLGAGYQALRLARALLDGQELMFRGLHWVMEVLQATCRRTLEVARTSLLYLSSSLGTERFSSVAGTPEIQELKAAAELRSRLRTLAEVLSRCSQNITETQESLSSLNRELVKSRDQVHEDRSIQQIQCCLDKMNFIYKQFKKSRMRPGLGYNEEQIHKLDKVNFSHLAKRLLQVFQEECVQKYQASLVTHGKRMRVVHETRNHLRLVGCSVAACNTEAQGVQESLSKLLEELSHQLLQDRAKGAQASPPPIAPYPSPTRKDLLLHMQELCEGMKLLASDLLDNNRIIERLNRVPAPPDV
Sequence of kinases (Homo sapiens, UniProt Q9P0L2) (Q9P0L2 whole entry): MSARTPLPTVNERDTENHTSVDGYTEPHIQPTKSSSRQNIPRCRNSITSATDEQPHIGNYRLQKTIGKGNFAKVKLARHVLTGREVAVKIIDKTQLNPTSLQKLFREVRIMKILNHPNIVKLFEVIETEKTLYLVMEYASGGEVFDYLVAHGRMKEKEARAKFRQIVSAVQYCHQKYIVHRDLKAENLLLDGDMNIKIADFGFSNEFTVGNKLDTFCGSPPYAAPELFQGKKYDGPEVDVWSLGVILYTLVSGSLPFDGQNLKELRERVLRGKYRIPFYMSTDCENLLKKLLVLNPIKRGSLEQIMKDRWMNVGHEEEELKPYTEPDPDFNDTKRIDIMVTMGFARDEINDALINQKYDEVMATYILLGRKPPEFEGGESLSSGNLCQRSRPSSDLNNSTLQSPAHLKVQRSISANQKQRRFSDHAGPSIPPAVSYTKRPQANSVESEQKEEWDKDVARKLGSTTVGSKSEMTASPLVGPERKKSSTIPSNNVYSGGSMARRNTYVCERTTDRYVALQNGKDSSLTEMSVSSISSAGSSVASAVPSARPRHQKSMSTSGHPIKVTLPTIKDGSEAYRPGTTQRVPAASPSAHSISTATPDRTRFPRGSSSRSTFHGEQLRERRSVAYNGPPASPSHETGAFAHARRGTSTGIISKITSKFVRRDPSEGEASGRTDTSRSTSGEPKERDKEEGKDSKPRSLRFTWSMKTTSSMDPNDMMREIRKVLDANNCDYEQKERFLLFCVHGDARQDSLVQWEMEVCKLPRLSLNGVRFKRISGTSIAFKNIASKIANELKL
Sequence of kinases (Homo sapiens, UniProt Q12851) (Q12851 whole entry): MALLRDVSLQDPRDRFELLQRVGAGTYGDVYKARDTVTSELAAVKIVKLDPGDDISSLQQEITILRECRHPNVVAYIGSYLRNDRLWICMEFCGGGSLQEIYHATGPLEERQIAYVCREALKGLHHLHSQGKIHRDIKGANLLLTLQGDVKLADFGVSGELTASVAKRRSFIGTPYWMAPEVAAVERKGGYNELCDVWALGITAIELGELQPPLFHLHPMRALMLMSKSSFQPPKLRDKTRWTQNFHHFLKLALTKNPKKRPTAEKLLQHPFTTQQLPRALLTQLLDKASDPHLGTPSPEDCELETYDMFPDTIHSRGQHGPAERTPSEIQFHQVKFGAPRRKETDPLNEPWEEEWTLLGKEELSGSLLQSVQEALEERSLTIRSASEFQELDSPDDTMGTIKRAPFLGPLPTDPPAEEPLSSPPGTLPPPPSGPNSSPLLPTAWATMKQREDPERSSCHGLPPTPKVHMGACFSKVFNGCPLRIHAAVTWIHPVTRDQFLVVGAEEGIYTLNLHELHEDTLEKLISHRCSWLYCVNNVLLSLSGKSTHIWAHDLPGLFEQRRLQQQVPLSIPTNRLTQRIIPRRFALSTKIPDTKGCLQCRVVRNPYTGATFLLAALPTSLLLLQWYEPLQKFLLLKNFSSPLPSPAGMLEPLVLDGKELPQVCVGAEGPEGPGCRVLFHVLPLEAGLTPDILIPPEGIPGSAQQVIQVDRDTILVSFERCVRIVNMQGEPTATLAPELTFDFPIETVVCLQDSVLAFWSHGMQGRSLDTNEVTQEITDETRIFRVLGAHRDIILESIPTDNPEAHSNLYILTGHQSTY
Sequence of kinases (Homo sapiens, UniProt Q9NR20) (Q9NR20 whole entry): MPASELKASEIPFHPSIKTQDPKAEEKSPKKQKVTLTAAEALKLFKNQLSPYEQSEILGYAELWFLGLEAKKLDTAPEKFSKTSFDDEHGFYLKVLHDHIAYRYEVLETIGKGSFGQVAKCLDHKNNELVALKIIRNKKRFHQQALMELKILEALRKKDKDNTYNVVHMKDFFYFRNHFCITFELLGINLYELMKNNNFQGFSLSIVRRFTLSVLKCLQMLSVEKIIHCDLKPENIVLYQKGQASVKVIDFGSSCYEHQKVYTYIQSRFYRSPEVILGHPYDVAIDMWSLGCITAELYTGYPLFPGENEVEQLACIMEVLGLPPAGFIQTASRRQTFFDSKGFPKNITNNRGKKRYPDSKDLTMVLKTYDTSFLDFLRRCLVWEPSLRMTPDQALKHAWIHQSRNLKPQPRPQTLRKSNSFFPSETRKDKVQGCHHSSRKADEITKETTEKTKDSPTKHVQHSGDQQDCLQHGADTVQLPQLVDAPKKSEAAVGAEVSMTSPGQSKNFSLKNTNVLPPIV
Sequence of kinases (Homo sapiens, UniProt Q9UBS0) (Q9UBS0 whole entry): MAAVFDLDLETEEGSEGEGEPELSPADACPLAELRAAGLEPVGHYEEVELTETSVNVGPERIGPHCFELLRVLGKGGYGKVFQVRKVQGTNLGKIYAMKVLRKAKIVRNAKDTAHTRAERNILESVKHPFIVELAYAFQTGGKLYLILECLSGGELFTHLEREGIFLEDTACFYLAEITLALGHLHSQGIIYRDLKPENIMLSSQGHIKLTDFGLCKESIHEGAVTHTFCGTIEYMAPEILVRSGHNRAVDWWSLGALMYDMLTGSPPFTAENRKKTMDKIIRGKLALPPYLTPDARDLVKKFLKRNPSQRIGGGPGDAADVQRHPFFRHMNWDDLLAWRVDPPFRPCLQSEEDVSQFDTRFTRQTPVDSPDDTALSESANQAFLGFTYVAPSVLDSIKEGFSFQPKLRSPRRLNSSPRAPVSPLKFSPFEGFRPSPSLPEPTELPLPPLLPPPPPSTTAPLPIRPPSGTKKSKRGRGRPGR

Row | SMILES | Mean Inhib (%) (kinases [1]) | Mean Inhib (%) (kinases [2]) | Mean Inhib (%) (kinases [3]) | Mean Inhib (%) (kinases [4]) | Mean Inhib (%) (kinases [5]) | Mean Inhib (%) (kinases [6]) | Mean Inhib (%) (kinases [7]; [26]) | Mean Inhib (%) (kinases [7]; [27]) | Mean Inhib (%) (kinases [8]) | Mean Inhib (%) (kinases [9]) | Mean Inhib (%) (kinases [10]) | Mean Inhib (%) (kinases [11]) | Mean Inhib (%) (kinases [12]) | Mean Inhib (%) (kinases [13]) | Mean Inhib (%) (kinases [14]) | Mean Inhib (%) (kinases [15]) | Mean Inhib (%) (kinases [16]; [28]) | Mean Inhib (%) (kinases [16]; [29]) | Mean Inhib (%) (kinases [17]) | Mean Inhib (%) (kinases [18]) | other results
1 | Cc1cc(Oc2ccnc(Nc3ccc(S(N)(=O)=O)cc3)c2)c(-c2ccccn2)nc1C [compound 65] | −4.9% | 18.4% | 4.3% | 11.3% | −2.3% | 2.1% | 25.4% | 3.2% | 1.0% | 4.1% | 16.3% | 5.8% | 5.7% | −1.8% | 6.5% | 3.1% | 0.0% | 3.9% | 0.1% | −1.3% | Mean Inhib (%) (kinases [19]): −3.9%; Mean Inhib (%) (kinases [20]): 11.7%; PIP5K1C FRET-Adapta SP Mean Mean Inhib (%) (kinases [21]; PIP5K1C): 3.2%; Mean Inhib (%) (kinases [22]; Test Conc(μM):ATP Conc(μM) 0.25): 13.7%; Mean Inhib (%) (kinases [23]; [30]): 2.3%; Mean Inhib (%) (kinases [23]; [31]): −5.7%; Mean Inhib (%) (kinases [24]): 8.2%; Mean Inhib (%) (kinases [25]): 1.2%
2 | Cc1ccc(NC(=O)c2ccnc(N3CCOCC3)c2)cc1Nc1ccnc(N2CC(C)OC(C)C2)n1 (centres unmarked) [compound 3] | 0.9% | 13.1% | 6.5% | 6.5% | −3.5% | 7.8% | −1.0% | 3.8% | 15.1% | 4.2% | 0.0% | 5.3% | 16.9% | −5.4% | 11.6% | −9.2% | 8.4% | −3.0% | 2.9% | 1.2% | Mean Inhib (%) (kinases [19]): −6.4%; Mean Inhib (%) (kinases [20]): 3.5%; Mean Inhib (%) (kinases [21]; PIP5K1C FRET-Adapta SP): −4.5%; Mean Inhib (%) (kinases [22]; Test Conc(μM):ATP Conc(μM) 1:300): −3.6%; Mean Inhib (%) (kinases [23]; [30]): −4.9%; Mean Inhib (%) (kinases [23]; [31]): 21.3%; Mean Inhib (%) (kinases [24]): −4.0%; Mean Inhib (%) (kinases [25]): 1.3%
